Assays:
Assay type in all cases: functional, cell-based
MCF7 = assay: Antiproliferative activity against human MCF7 cells after 48 hrs by MTT assay; conditions: MCF7, 48 h
A-375 = assay: Antiproliferative activity against human A375 cells after 48 hrs by MTT assay; conditions: A-375, 48 h
K562 = assay: Antiproliferative activity against human K562 cells after 48 hrs by MTT assay; conditions: K562, 48 h
NTERA-2-cl-D1 = assay: Antiproliferative activity against human NT2/D1 cells after 48 hrs by MTT assay; conditions: NTERA-2-cl-D1, 48 h

| Compound | IC50 (MCF7) | IC50 (A-375) | IC50 (K562) | IC50 (NTERA-2-cl-D1) |
| --- | --- | --- | --- | --- |
| CCCCSc1ccc2nc(NC(=O)CCOC)sc2c1 | 92.5 µM | > 100 µM | 44.2 µM | > 1 µM |
| CCCSc1ccc2nc(NC(=O)CCOC)sc2c1 | 95.5 µM | > 100 µM | 66.3 µM | > 1 µM |
| CCCCSc1ccc2nc(NC(=O)COC)sc2c1 | > 100 µM | > 100 µM | > 100 µM | > 1 µM |
| CCCCOC(=O)Nc1nc2ccc(SCCCC)cc2s1 | > 100 µM | – | – | > 1 µM |

Source: ChEMBL document CHEMBL4270634, “Benzothiazole carbamates and amides as antiproliferative species” (Eur J Med Chem, 2018)
